In publication PMC3038857, “Using Nuclear Receptor Activity to Stratify Hepatocarcinogens” (PLoS ONE, 2011):
Read-outs that look alike come from different tables or passages of the source.

Experiments:
[1] = biological target: T1, AHR (aryl hydrocarbon receptor) (Homo sapiens, UniProt P35869); assay: ATG_Ahr_CIS: Factorial reporter gene assay (multiplexed transcription reporter, HepG2); format: cell-based; set-up: scale not given here
T1 construct: endogenous in cells; host or cells: HepG2
T1 sequence (P35869 11-848): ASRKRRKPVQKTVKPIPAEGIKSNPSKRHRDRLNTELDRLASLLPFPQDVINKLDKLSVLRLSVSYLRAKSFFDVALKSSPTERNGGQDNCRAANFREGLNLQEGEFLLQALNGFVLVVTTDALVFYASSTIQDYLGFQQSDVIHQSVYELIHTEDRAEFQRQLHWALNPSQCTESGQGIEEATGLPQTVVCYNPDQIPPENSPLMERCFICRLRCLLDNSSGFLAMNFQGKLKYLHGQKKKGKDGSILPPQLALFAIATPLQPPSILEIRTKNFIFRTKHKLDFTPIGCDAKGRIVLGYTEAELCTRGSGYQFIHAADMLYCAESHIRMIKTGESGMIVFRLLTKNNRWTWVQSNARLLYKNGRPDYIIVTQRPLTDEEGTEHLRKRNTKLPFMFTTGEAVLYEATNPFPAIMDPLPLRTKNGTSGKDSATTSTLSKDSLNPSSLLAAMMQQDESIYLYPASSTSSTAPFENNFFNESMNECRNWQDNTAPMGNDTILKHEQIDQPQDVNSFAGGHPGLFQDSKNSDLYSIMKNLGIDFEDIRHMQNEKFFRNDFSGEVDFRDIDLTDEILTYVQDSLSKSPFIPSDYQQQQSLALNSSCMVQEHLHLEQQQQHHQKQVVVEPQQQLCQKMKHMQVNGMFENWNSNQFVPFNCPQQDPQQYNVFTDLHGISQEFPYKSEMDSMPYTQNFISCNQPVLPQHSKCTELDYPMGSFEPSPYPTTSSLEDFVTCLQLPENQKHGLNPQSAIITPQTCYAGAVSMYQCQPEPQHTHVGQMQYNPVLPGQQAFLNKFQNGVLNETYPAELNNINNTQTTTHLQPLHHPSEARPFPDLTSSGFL
Method in brief: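 Seven concentrations per chemical, three-fold dilutions down from the MTC, were tested in HepG2 hepatoma cells. Those cells carried a multiple reporter transcription unit library, read either as cis transcription-factor-site reporters or as a trans mammalian one-hybrid panel for nuclear receptors.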

[2] = biological target: T2, PPARD (peroxisome proliferator-activated receptor delta) (Homo sapiens, UniProt Q03181); assay: ATG_PPARd_TRANS: Factorial reporter gene assay (HepG2); format: cell-based; set-up: scale not given here; details: scale not given, looks like -log10 of molar active concentration, 0 = no activity
T2 construct: expressed in transfected cells; host or cells: HepG2
T2 sequence (Q03181 1-441): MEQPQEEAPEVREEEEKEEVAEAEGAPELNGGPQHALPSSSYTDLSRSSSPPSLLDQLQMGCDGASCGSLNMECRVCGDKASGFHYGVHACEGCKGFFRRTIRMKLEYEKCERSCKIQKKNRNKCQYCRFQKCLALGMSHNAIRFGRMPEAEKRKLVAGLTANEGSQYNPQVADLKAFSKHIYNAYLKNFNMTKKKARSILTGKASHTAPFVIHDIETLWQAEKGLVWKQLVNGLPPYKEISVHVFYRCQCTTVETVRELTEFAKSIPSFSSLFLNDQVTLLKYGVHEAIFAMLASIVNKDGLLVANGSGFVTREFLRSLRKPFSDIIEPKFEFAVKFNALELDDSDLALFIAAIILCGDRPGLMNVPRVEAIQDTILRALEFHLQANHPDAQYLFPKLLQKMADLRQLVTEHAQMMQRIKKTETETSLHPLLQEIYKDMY
Procedure: (§1) A multiple reporter transcription unit (MRTU) library consisting of 48 transcription factor binding sites was transfected into the HepG2 human liver hepatoma cell line. In addition to the cis-acting reporter genes (CIS), a modification of the approach was used to generate a trans-system (TRANS) with a mammalian one-hybrid assay consisting of an additional 25 MRTU library reporting the activity of nuclear receptor super-family members. […] These assays were performed by Attagene Inc. (Morrisville NC) under contract to EPA.
(§2) In addition to the cis-acting reporter genes (CIS), a modification of the approach was used to generate a trans-system (TRANS) with a mammalian one-hybrid assay consisting of an additional 25 MRTU library reporting the activity of nuclear receptor super-family members. […] Chemicals were then tested in the CIS and TRANS assays at seven concentrations starting at the MTC and followed by three-fold serial dilutions. These assays were performed by Attagene Inc. (Morrisville NC) under contract to EPA. Detailed description of the methods, data and analysis methods for this dataset will be presented in a separate publication.

CAR (NR1I3) [3] = biological target: T3, CAR (NR1I3) (Homo sapiens, UniProt Q14994); assay: NVS_NR_hCAR: Human CAR CITCO (cell-free HTS); format: binding
T3 sequence (Q14994 1-352): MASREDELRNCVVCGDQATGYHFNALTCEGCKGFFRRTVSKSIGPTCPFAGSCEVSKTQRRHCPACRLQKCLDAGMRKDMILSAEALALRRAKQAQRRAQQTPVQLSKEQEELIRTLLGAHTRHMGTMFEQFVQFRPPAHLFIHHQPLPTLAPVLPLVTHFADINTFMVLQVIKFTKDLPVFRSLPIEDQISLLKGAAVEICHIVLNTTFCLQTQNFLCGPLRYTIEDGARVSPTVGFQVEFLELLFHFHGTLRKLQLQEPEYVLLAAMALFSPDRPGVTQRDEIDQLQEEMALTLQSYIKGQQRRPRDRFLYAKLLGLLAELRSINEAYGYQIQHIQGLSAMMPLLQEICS
Source text: (§3) These are a collection of biochemical assays measuring binding constants and enzyme inhibition values. Chemicals were initially screened at a single concentration in duplicate wells at a concentration of 10 [drawing 63] M for cytochrome P-450 assays and 25 [drawing 64] M for all others. […] These assays were run by Caliper Life Sciences (Hanover, MD) under contract to EPA. Short assay descriptions are available at: http://www.caliperls.com/products/contract-research/in-vitro/.
(§4) Cell-free HTS Assays: A collection of biochemical assays measuring binding constants and enzyme inhibition values. […] These assays were run by Caliper Life Sciences (Hanover, MD) under contract to EPA. Short assay descriptions are available at http://www.caliperls.com/products/contract-research/in-vitro/. Values for all endpoints were imported into GeneData Screener (Basel, Switzerland) and normalised to solvent controls from the same plate as the tested compounds and expressed as percent of neutral control. Concentration-response curves were fit in GeneData Screener (Basel, Switzerland) Condeseo module using the Hill equation and AC50 values were determined. […] Detailed description of the methods, data and analysis methods for this dataset are described in a separate publication.

CAR (NR1I3) [4] = biological target: T3, CAR (NR1I3); assay: NVS_NR_hCAR_Agonist: Human CAR CITCO Agonist (cell-free HTS); format: biochemical; details: scale not given, looks like -log10 of molar active concentration, 0 = no activity
Source text: as §3, §4

CAR (NR1I3) [5] = biological target: T3, CAR (NR1I3); assay: ATG_CAR_TRANS: Factorial reporter gene assay (HepG2); format: cell-based; set-up: endogenous in cells; host or cells: HepG2
Procedure: as §1, §2

Mouse Liver = details: ref ToxRefDB, cited from earlier work
[6] = HepG2, scale not given, looks like -log10 of molar active concentration, 0 = no activity
[7] = scale not given, looks like -log10 of molar active concentration, 0 = no activity
[8] = mouse chronic study, liver, preneoplastic lesion, coded 6 / Inf / 0, code not explained here

| SMILES | ATG_Ahr_CIS [1, 6] | ATG_PPARd_TRANS [2] | NVS_NR_hCAR (CAR (NR1I3) [3]; [7]) | NVS_NR_hCAR_Agonist (CAR (NR1I3) [4]) | ATG_CAR_TRANS (CAR (NR1I3) [5]; [6]) | further results |
| --- | --- | --- | --- | --- | --- | --- |
| COC(=O)c1ccccc1CS(=O)(=O)NC(=O)Nc1nc(OC)cc(OC)n1 [r33] | 0 | 0 | 0 | 0 | 0 | – |
| CC(C)N1C(=O)c2ccccc2NS1(=O)=O [r37] | 0 | 0 | – | – | – | CHR_Mouse_Liver_2_PreneoplasticLesion (Mouse Liver; [8]): 6 |
| COc1ccc(-c2ccccc2)cc1NNC(=O)OC(C)C [r38] | – | – | 0 | 0 | 0 | CHR_Mouse_Liver_2_PreneoplasticLesion (Mouse Liver; [8]): 6 |
| CC(C)(c1ccc(O)cc1)c1ccc(O)cc1 [r40] | 4.495 | 0 | 6.955 | 0 | 0 | – |
| OB(O)O [r41] | 0 | 0 | 0 | 0 | 0 | – |
| O=C(Nc1ccccc1-c1ccc(Cl)cc1)c1cccnc1Cl [r42] | 0 | 0 | 0 | 0 | 0 | – |
| CCC(C)n1c(=O)[nH]c(C)c(Br)c1=O (centres unmarked) [r43] | 0 | – | 0 | 0 | 0 | CHR_Mouse_Liver_2_PreneoplasticLesion (Mouse Liver; [8]): 6 |
| CCCCOCN(C(=O)CCl)c1c(CC)cccc1CC [r46] | 0 | 0 | 0 | 0 | 0 | – |
| CCC(C)Nc1c([N+](=O)[O-])cc(C(C)(C)C)cc1[N+](=O)[O-] (centres unmarked) [r48] | 0 | 0 | – | – | – | – |
| CCSC(=O)N(CC(C)C)CC(C)C [r49] | 0 | 0 | 0 | 0 | 0 | – |
| O=C1C2CC=CCC2C(=O)N1SC(Cl)(Cl)Cl (centres unmarked) [r51] | 0 | 0 | 0 | 0 | 0 | – |
| CC1=C(C(=O)Nc2ccccc2)SCCO1 [r53] | 0 | 0 | – | – | – | – |
| CCOC(=O)C(Cl)Cc1cc(-n2nc(C)n(C(F)F)c2=O)c(F)cc1Cl (centres unmarked) [r54] | 0 | 0 | 0 | 0 | 0 | – |
| Nc1cnn(-c2ccccc2)c(=O)c1Cl [r56] | 4.444 | 0 | 0 | 0 | 0 | – |
| COc1cc(Cl)c(OC)cc1Cl [r57] | 0 | – | – | – | – | – |
| CC(C)OC(=O)Nc1cccc(Cl)c1 [r59] | 0 | 0 | – | – | – | CHR_Mouse_Liver_2_PreneoplasticLesion (Mouse Liver; [8]): 6 |
| COc1nc(C)nc(NC(=O)NS(=O)(=O)c2ccccc2Cl)n1 [r62] | 0 | – | 0 | 0 | 0 | – |
| COc1nc(C)nc(NC(=O)NS(=O)(=O)c2ccccc2Cl)n1 [r63] | 0 | – | 0 | 0 | 0 | – |
| CCCN(CCC)c1c([N+](=O)[O-])cc(C(F)(F)F)c(N)c1[N+](=O)[O-] [r252] | – | – | – | – | – | ATG_Ahr_CIS ([1]; HepG2): 4.444 |
| CCCC1COC(Cn2cncn2)(c2ccc(Cl)cc2Cl)O1 (centres unmarked) [r262] | – | – | – | – | – | ATG_Ahr_CIS ([1]; HepG2): 4.367; CHR_Mouse_Liver_2_PreneoplasticLesion (Mouse Liver; mouse, chronic study): 6 |
| CC(C)=CC1C(C(=O)OCc2coc(Cc3ccccc3)c2)C1(C)C (centres unmarked) [r280] | – | – | – | – | – | CHR_Mouse_Liver_2_PreneoplasticLesion (Mouse Liver; chronic study, mouse liver): 6; ATG_CAR_TRANS (CAR (NR1I3) [5]; HepG2 reporter): 4.585 |
| CCc1ccc(C(=O)NN(C(=O)c2cc(C)cc(C)c2)C(C)(C)C)cc1 [r290] | – | – | – | – | – | ATG_Ahr_CIS ([1]; HepG2 reporter): 4.337 |
| COc1cccc(C(=O)NN(C(=O)c2cc(C)cc(C)c2)C(C)(C)C)c1C [row 202] | – | – | – | – | – | ATG_Ahr_CIS ([1]; HepG2): 4.409 |
| CCc1cccc(C)c1N(C(=O)CCl)C(C)COC (centres unmarked) [row 208] | – | – | – | – | – | NVS_NR_hCAR (CAR (NR1I3) [3]): 4.462 |
| CCN(CC)C(=O)C(C)Oc1cccc2ccccc12 (centres unmarked) [row 219] | – | – | – | – | – | ATG_Ahr_CIS ([1]; HepG2): 4.456 |
| CC(C)Oc1cc(-n2nc(C(C)(C)C)oc2=O)c(Cl)cc1Cl [row 225] | – | – | – | – | – | CHR_Mouse_Liver_2_PreneoplasticLesion (Mouse Liver; chronic mouse study, liver): 6 |
